Like-named read-outs stand apart in the source and are kept apart here.
How the values were obtained:
[1] = system: C57BL/KsJ db/+ mice
Experimental: The induction of hair loss following treatment with certain anticancer drugs, such as cyclophosphamide or doxorubicin, is well documented (A. Tierney & J. Taylor (1991) Nurs. Stand 5:29-31; R. R. Love, et al. (1989) Cancer 63:604-612; B. W. Cline (1984) Cancer Nurs. 7:221-228). The following experiment was performed to determine the effect of n-butyl cyanoacrylate on hair regrowth in mice pre-treated with cyclophosphamide or doxorubicin. Twenty mice of strain C57BL/KsJ db/+ were peritoneally injected with either cyclophosphamide in PBS (20 mg per kilogram of body weight) or Doxorubicin in PBS (2 mg per kilogram of body weight) for 10 consecutive days. Then a single 10 μl dose of n-butyl cyanoacrylate was applied topically to an area of the shaved dorsum of each animal. Control mice, which were injected with PBS alone, were treated similarly. The effects of hair regrowth were determined both by phototrichogram (macroscopic observation using photography) and by folliculogram (microscopic observation of histological changes in the treated and untreated skin).

[2] = system: mice and rats
[3] = system: C57BL/KsJ db/+ and C57BL/KsJ db/db mice; assay: Effect of isobutyl cyanoacrylate on hair growth, topical; assay type: in vivo, mouse
[4] = system: C57BL/KsJ db/+ and C57BL/KsJ db/db mice; assay: as above; assay type: in vivo, mouse; settings: for Hair growth: 10 μl cm^−2 topical
Experimental: The following experiment was performed to identify the effect of isobutyl cyanoacrylate, a structural analog of n-butyl cyanoacrylate, on hair growth. The shaved backs of C57BL/KsJ db/+ and C57BL/KsJ db/db mice were treated topically at a dose of 10 μl cm^−2 with either isobutyl cyanoacrylate (Sigma Chemical Co., St Louis, Mo.) or n-butyl cyanoacrylate.

[5] = system: hair growth; assay: Hair growth stimulation by comparison agents; settings: in vivo

**Q.** With `COc1cccc2c1C(=O)c1c(O)c3c(c(O)c1C2=O)C[C@@](O)(C(=O)CO)C[C@@H]3O[C@H]1C[C@H](N)[C@H](O)[C@H](C)O1` [doxorubicin, reference compound] as the molecule, how does the “pigmentation of new hair and skin in pre-treated animals” value ([1]; mouse, in vivo) read?
**A.** normal pigmentation

**Q.** Which results are given for `C=C(C#N)C(=O)OCC(C)C` [isobutyl cyanoacrylate]?
**A.** response compared with hair growth induced by n-butyl cyanoacrylate ([2]; mice and rats): very similar; hair growth in normal intact skin, in skin of animals pre-treated with anticancer drugs, and at edges of wounds ([2]; two species (rat and mouse), seven strains of mouse): stimulate hair growth; hair growth on dorsum (photograph) ([3]; C57BL/KsJ +/+ mouse, 19 days post application): “T” pattern of hair growth; hair growth response to formulation with about 0.01% monomethyl hydroquinone ([3]; several strains of mice): positive response; Hair growth ([4]; C57BL/KsJ db/+): 3+ (high hair regeneration with an area larger than 50% of the treated area); Hair growth ([4]; C57BL/KsJ db/db): 3+ (high hair regeneration with an area larger than 50% of the treated area); hair growth response compared with that of n-butyl cyanoacrylate ([4]; both strains): nearly identical; time at which hair growth was visible ([4]; both strains, post treatment): 8 to 12 days; time at which hair reached full length ([4]; both strains, post treatment): 15 to 18 days; time at which many new hair follicles occurred in treated area ([4]; both strains, post treatment): 2 to 3 days

**Q.** Which “pigmentation of new hair and skin in pre-treated animals” value ([1]; pre-treatment with the anticancer drug, then topical n-butyl cyanoacrylate) does the source give for `O=P1(N(CCCl)CCCl)NCCCO1` (stereo not shown) [cyclophosphamide, reference compound] here?
**A.** lack of pigmentation in the new growth hairs

**Q.** Which “stimulation of hair growth” value [5] does the source give for `CCCCOC(=O)CCCCCCCCC(=O)OCCCC` [sebacic acid dibutyl ester] here?
**A.** not effective in stimulating hair growth
